Data: patent publication US4410513A, “Synthetic peptides having pituitary growth hormone releasing activity” (Beckman Instruments, Inc., priority 1981, dated 1983)
Non-standard residues stand in square brackets, D forms with d. Residues, ends and D or L forms follow the SMILES beside them.

Legend:
growth hormone release = assay: In vivo growth hormone release study (serum GH by RIA about 15 minutes after intraperitoneal injection); design: species or system rat; settings: 21 day old female rats, serum about 15 minutes after injection, mean of 8 ± SEM, control 4 ± 1
Protocol: Female rats of the CD-1 strain were housed in a constant temperature room at 24° C. with 14 hours light and 10 hours darkness. The rats were fed Purina brand rat chow ab libitum. All studies were started between 0800 and 1000 hours.
Each female rat (21 days old; eight rats per dosage level shown in Table XVI) was intraperitoneally injected with a desired dosage of the peptide of Example 1. Approximately 15 minutes after injection, the rat was guillotined. A blood sample was collected from the guillotined rat. The blood sample was centrifuged and a serum sample was collected therefrom. Each serum sample was assayed for GH, in duplicate, by a standard radioimmunoassay (RIA).

pituitaries = assay: In vitro growth hormone release study (incubated rat pituitaries, GH by RIA); assay type: cell-based
Protocol: Female rats at the CD-1 strain were housed in a constant temperature room at 24° C. with 14 hours light and 10 hours darkness. The rats were fed Purina brand rat chow ab libitum. All studies were started between 0800 and 1000 hours.
Pituitaries were removed from 20 day old female rats. In each polytetrafluoroethylene beaker (10 ml) was incubated two pituitaries at 36° C. in 1 ml of lactated Ringer's solution in a Dubnoff Shaker (90 cycles/min.). All medium in each beaker was removed each hour (e.g., P1, P2, I3, I4, I5) and then fresh medium was added back to each beaker. Each medium removed was assayed for GH, in duplicate, by a standard radioimmunoassay (RIA).
The growth hormone agonist of Example 1 was not added to the incubation mediums employed during the first hour of the incubation period (P1) or to the incubation mediums employed during the second hour of the incubation period (P2). The growth hormone agonist of Example 1 was dissolved in dimethylsulfoxide (DMSO; 10:1, agonist:DMSO), added to each incubation medium employed during the third hour of the incubation period (I3), to each medium employed during the fourth hour of the incubation period (I4) and to each medium employed during the fifth hour of the incubation period (I5). The release of growth hormone was recorded as ΔGH and calculated by subtracting the amount of GH released at P2 from that released at I3, I4, and I5. The agonist activity was determined from the release at I3, I4, and I5.
The procedure set forth in Example 11 with one modification was employed in an in vitro growth hormone release study of the peptide of Example 6 and the results therefrom are set forth in Table XI. The sole modification was the deletion of I5 from the procedure of Example 11.
The procedure set forth in Example 11 with one modification was employed in an in vitro growth hormone release study of the peptide of Example 7 and the results therefrom are set forth in Table XII. The sole modification was the deletion of I5 from the procedure of Example 11.

[1] = dosage 1 ng/ml incubation medium, mean of 9 assays (I3, I4, I5 minus P2) ± SEM
[2] = dosage 3 ng/ml incubation medium, mean of 9 assays (I3, I4, I5 minus P2) ± SEM
[3] = dosage 10 ng/ml incubation medium, mean of 9 assays (I3, I4, I5 minus P2) ± SEM
[4] = dosage 30 ng/ml incubation medium, mean of 9 assays (I3, I4, I5 minus P2) ± SEM
[5] = dosage 100 ng/ml incubation medium, mean of 9 assays (I3, I4, I5 minus P2) ± SEM
[6] = dosage 1,000 ng/ml incubation medium, mean of 9 assays (I3, I4, I5 minus P2) ± SEM

C[C@H](NC(=O)[C@@H](Cc1c[nH]c2ccccc12)NC(=O)[C@@H](N)Cc1c[nH]cn1)C(=O)N[C@@H](Cc1c[nH]c2ccccc12)C(=O)N[C@H](Cc1ccccc1)C(N)=O [Example 1, H2 -His-D-Trp-Ala-Trp-D-Phe-NH2] (H-H[dW]AW[dF]-NH2)
ΔGH (growth hormone release; dosage 0.1 (μg/ml serum)): 1 ± 1 ng/mL | ΔGH (growth hormone release; dosage 1.0 (μg/ml serum)): 2 ± 2 ng/mL | ΔGH (growth hormone release; dosage 10.0 (μg/ml serum)): 2 ± 1 ng/mL | ΔGH (growth hormone release; dosage 100.0 (μg/ml serum)): 82 ± 18 ng/mL | ΔGH (pituitaries; [1]): 206 ng/mL | ΔGH (pituitaries; [2]): 288 ng/mL | ΔGH (pituitaries; [3]): 2,005 ng/ml | ΔGH (pituitaries; [4]): 3,046 ng/ml

C[C@@H](NC(=O)[C@@H](Cc1c[nH]c2ccccc12)NC(=O)[C@@H](N)Cc1ccc(O)cc1)C(=O)N[C@@H](Cc1c[nH]c2ccccc12)C(=O)N[C@H](Cc1ccccc1)C(N)=O [Example 6, H2 -Tyr-D-Trp-D-Ala-Trp-D-Phe-NH2] (H-Y[dW][dA]W[dF]-NH2)
ΔGH (pituitaries; dosage 300 ng/ml incubation medium, I5 deleted, mean of 6 assays (I3, I4 minus P2) ± SEM): 648 ± 210 ng/mL | ΔGH (pituitaries; dosage 3,000 ng/ml incubation medium, I5 deleted, mean of 6 assays (I3, I4 minus P2) ± SEM): 435 ± 143 ng/mL | ΔGH (pituitaries; dosage 30,000 ng/ml incubation medium, I5 deleted, mean of 6 assays (I3, I4 minus P2) ± SEM): 1136 ± 190 ng/mL

CC(=O)N[C@@H](Cc1ccc(O)cc1)C(=O)N[C@H](Cc1c[nH]c2ccccc12)C(=O)N[C@@H](C)C(=O)N[C@@H](Cc1c[nH]c2ccccc12)C(=O)N[C@H](Cc1ccccc1)C(N)=O [Example 9, CH3 CO-Tyr-D-Trp-Ala-Trp-D-Phe-NH2] (Ac-Y[dW]AW[dF]-NH2)
ΔGH (pituitaries; [3]): -297 ± 79 ng/mL | ΔGH (pituitaries; [4]): -118 ± 97 ng/mL | ΔGH (pituitaries; dosage 300 ng/ml incubation medium, mean of 9 assays (I3, I4, I5 minus P2) ± SEM): 5 ± 29 ng/mL | ΔGH (pituitaries; dosage 3,000 ng/ml incubation medium, mean of 9 assays (I3, I4, I5 minus P2) ± SEM): 1594 ± 385 ng/mL | ΔGH (pituitaries; dosage 30,000 ng/ml incubation medium, mean of 9 assays (I3, I4, I5 minus P2) ± SEM): 1607 ± 250 ng/mL

C[C@H](NC(=O)[C@@H](Cc1c[nH]c2ccccc12)NC(=O)[C@@H](N)Cc1c[nH]cn1)C(=O)N[C@@H](Cc1c[nH]c2ccccc12)C(=O)N[C@H](Cc1ccc(O)cc1)C(N)=O [Example 3, H2 -His-D-Trp-Ala-Trp-D-Tyr-NH2] (H-H[dW]AW[dY]-NH2)
ΔGH (pituitaries; [1]): -126 ng/mL | ΔGH (pituitaries; [3]): -99 ng/mL | ΔGH (pituitaries; [5]): -238 ng/mL | ΔGH (pituitaries; [6]): 2598 ng/mL

C[C@H](NC(=O)[C@@H](Cc1c[nH]c2ccccc12)NC(=O)[C@@H](N)Cc1ccc(O)cc1)C(=O)N[C@@H](Cc1c[nH]c2ccccc12)C(=O)N[C@H](Cc1c[nH]cn1)C(N)=O [Example 2, H2 -Tyr-D-Trp-Ala-Trp-D-His-NH2] (H-Y[dW]AW[dH]-NH2)
ΔGH (pituitaries; [1]): -179 ng/mL | ΔGH (pituitaries; [2]): -192 ng/mL | ΔGH (pituitaries; [3]): -802 ng/mL | ΔGH (pituitaries; [4]): 611 ng/mL

C[C@H](NC(=O)[C@@H](Cc1c[nH]c2ccccc12)NC(=O)[C@@H](N)Cc1c[nH]cn1)C(=O)N[C@@H](Cc1c[nH]c2ccccc12)C(=O)N[C@H](Cc1c[nH]cn1)C(N)=O [Example 4, H2 -His-D-Trp-Ala-Trp-D-His-NH2] (H-H[dW]AW[dH]-NH2)
ΔGH (pituitaries; [1]): -166 ng/mL | ΔGH (pituitaries; [3]): -369 ng/mL | ΔGH (pituitaries; [5]): 43 ng/mL | ΔGH (pituitaries; [6]): 1501 ng/mL
